Legend:
Format in all cases: in vivo
[1] = system: Italian ryegrass (Lolium mutiflorum); assay: Test C preemergence, visual plant response rating; details: Test C, 0 is no effect, 100 is complete control
Summary of the method: (§1)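 Visual injury on a 0 (no effect) to 100 (complete control) scale versus untreated controls, scored approximately 10 d after treatment under greenhouse conditions. Treatments used surfactant-containing non-phytotoxic solvent formulations, sprayed onto loam–sand soil preemergence or onto one- to two-leaf plants 2–10 cm tall postemergence.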

[2] = system: barnyardgrass (Echinochloa crus-galli); assay: Test C preemergence, visual plant response rating; details: Test C, 0 is no effect, 100 is complete control
Summary of the method: as §1

[3] = system: foxtail, giant (giant foxtail, Setaria faberi); assay: Test C preemergence, visual plant response rating; details: Test C, 0 is no effect, 100 is complete control
Summary of the method: as §1

kochia (Bassia scoparia) [4] = assay: Test C preemergence, visual plant response rating; details: Test C, 0 is no effect, 100 is complete control
Summary of the method: as §1

[5] = system: pigweed (Amaranthus retroflexus); assay: Test C preemergence, visual plant response rating; details: Test C, 0 is no effect, 100 is complete control
Summary of the method: as §1

[6] = system: ragweed (common ragweed, Ambrosia artemisiifolia); assay: Test C preemergence, visual plant response rating; details: Test C, 0 is no effect, 100 is complete control
Summary of the method: as §1

[7] = system: Italian ryegrass (Lolium mutiflorum); assay: Test C postemergence, visual plant response rating
Summary of the method: as §1

[8] = system: barnyardgrass (Echinochloa crus-galli); assay: Test C postemergence, visual plant response rating
Summary of the method: as §1

[9] = system: blackgrass (Alopecurus myosuroides); assay: Test C postemergence, visual plant response rating
Summary of the method: as §1

corn (Zea mays) = assay: Test C postemergence, visual plant response rating
Summary of the method: as §1

[10] = system: foxtail, giant (giant foxtail, Setaria faberi); assay: Test C postemergence, visual plant response rating
Summary of the method: as §1

[11] = system: galium (catchweed bedstraw, Galium aparine); assay: Test C postemergence, visual plant response rating
Summary of the method: as §1

kochia (Bassia scoparia) [12] = assay: Test C postemergence, visual plant response rating
Summary of the method: as §1

[13] = system: pigweed (Amaranthus retroflexus); assay: Test C postemergence, visual plant response rating
Summary of the method: as §1

[14] = system: ragweed (common ragweed, Ambrosia artemisiifolia); assay: Test C postemergence, visual plant response rating
Summary of the method: as §1

[15] = system: wheat (Triticum aestivum); assay: Test C postemergence, visual plant response rating
Summary of the method: as §1

[16] = system: barnyardgrass (Echinochloa crus-galli); assay: Test D flooded paddy test, visual plant response rating; details: 250 g ai/ha, scale 0 to 100 (0 no effect, 100 complete control), 13 to 15 d
Summary of the method: (§2)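 Rating is visual, on a 0 (no effect) to 100 (complete control) scale versus controls, taken 13 to 15 d after treatment in a greenhouse. Treatment went into paddy water kept 3 cm above the soil surface, with plants at the 2-leaf stage.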

[17] = system: duck salad (Heteranthera limosa); assay: as above; details: 250 g ai/ha, scale 0 to 100 (0 no effect, 100 complete control), 13 to 15 d
Summary of the method: as §2

rice (Oryza sativa) = assay: as above; details: 250 g ai/ha, scale 0 to 100 (0 no effect, 100 complete control), 13 to 15 d
Summary of the method: as §2

[18] = system: sedge umbrella (small-flower umbrella sedge, Cyperus difformis); assay: as above; details: 250 g ai/ha, scale 0 to 100 (0 no effect, 100 complete control), 13 to 15 d
Summary of the method: as §2

[19] = Test C, postemergence, 125 g ai/ha

CO/N=C(\c1ccc(Cl)c(Cl)c1)c1c(O)c(C)nn(C)c1=O [Compound 217]
30: Kochia plant response rating (0 to 100 scale) (kochia (Bassia scoparia) [12]; Postemergence, 31 g ai/ha)
20: Kochia plant response rating (0 to 100 scale) (kochia (Bassia scoparia) [4]; 125 g ai/ha) | Barnyardgrass plant response rating (0 to 100 scale) [8, 19] | Pigweed plant response rating (0 to 100 scale) [13, 19] | Ragweed plant response rating (0 to 100 scale) [14, 19]
0: Ryegrass, Italian plant response rating (0 to 100 scale) ([1]; 31 g ai/ha) | Ryegrass, Italian plant response rating (0 to 100 scale) ([1]; 125 g ai/ha) | Barnyardgrass plant response rating (0 to 100 scale) ([2]; 31 g ai/ha) | Barnyardgrass plant response rating (0 to 100 scale) ([2]; 125 g ai/ha) | Foxtail, Giant plant response rating (0 to 100 scale) ([3]; 31 g ai/ha) | Foxtail, Giant plant response rating (0 to 100 scale) ([3]; 125 g ai/ha) | Kochia plant response rating (0 to 100 scale) (kochia (Bassia scoparia) [4]; 31 g ai/ha) | Pigweed plant response rating (0 to 100 scale) ([5]; 31 g ai/ha) | Pigweed plant response rating (0 to 100 scale) ([5]; 125 g ai/ha) | Ragweed plant response rating (0 to 100 scale) ([6]; 31 g ai/ha) | Ragweed plant response rating (0 to 100 scale) ([6]; 125 g ai/ha) | Ryegrass, Italian plant response rating (0 to 100 scale) ([7]; Postemergence, 31 g ai/ha) | Ryegrass, Italian plant response rating (0 to 100 scale) [7, 19] | Barnyardgrass plant response rating (0 to 100 scale) ([8]; Postemergence, 31 g ai/ha) | Blackgrass plant response rating (0 to 100 scale) ([9]; Postemergence, 31 g ai/ha) | Blackgrass plant response rating (0 to 100 scale) [9, 19] | Corn plant response rating (0 to 100 scale) (corn (Zea mays); Postemergence, 31 g ai/ha) | Corn plant response rating (0 to 100 scale) (corn (Zea mays); [19]) | Foxtail, Giant plant response rating (0 to 100 scale) ([10]; Postemergence, 31 g ai/ha) | Foxtail, Giant plant response rating (0 to 100 scale) [10, 19] | Ragweed plant response rating (0 to 100 scale) ([14]; Postemergence, 31 g ai/ha) | Wheat plant response rating (0 to 100 scale) ([15]; Postemergence, 31 g ai/ha) | Wheat plant response rating (0 to 100 scale) [15, 19] | Plant response rating, Barnyardgrass (Flood) [16] | Plant response rating, Ducksalad (Flood) [17] | Plant response rating, Rice (Flood) (rice (Oryza sativa)) | Plant response rating, Sedge, Umbrella (Flood) [18]
80: Galium plant response rating (0 to 100 scale) [11, 19]
10: Pigweed plant response rating (0 to 100 scale) ([13]; Postemergence, 31 g ai/ha)
60: Kochia plant response rating (0 to 100 scale) (kochia (Bassia scoparia) [12]; [19])
40: Galium plant response rating (0 to 100 scale) ([11]; Postemergence, 31 g ai/ha)

CO/N=C(/c1ccc(F)c(Cl)c1)c1c(O)c(C)nn(C)c1=O [Compound 218]
10: Ryegrass, Italian plant response rating (0 to 100 scale) ([1]; 125 g ai/ha) | Barnyardgrass plant response rating (0 to 100 scale) [8, 19] | Kochia plant response rating (0 to 100 scale) (kochia (Bassia scoparia) [12]; Postemergence, 31 g ai/ha) | Ragweed plant response rating (0 to 100 scale) [14, 19]
80: Galium plant response rating (0 to 100 scale) [11, 19]
50: Galium plant response rating (0 to 100 scale) ([11]; Postemergence, 31 g ai/ha)
60: Ryegrass, Italian plant response rating (0 to 100 scale) [7, 19] | Pigweed plant response rating (0 to 100 scale) [13, 19]
30: Kochia plant response rating (0 to 100 scale) (kochia (Bassia scoparia) [12]; [19])
40: Ryegrass, Italian plant response rating (0 to 100 scale) ([7]; Postemergence, 31 g ai/ha)
20: Pigweed plant response rating (0 to 100 scale) ([13]; Postemergence, 31 g ai/ha)
0: Ryegrass, Italian plant response rating (0 to 100 scale) ([1]; 31 g ai/ha) | Barnyardgrass plant response rating (0 to 100 scale) ([2]; 31 g ai/ha) | Barnyardgrass plant response rating (0 to 100 scale) ([2]; 125 g ai/ha) | Foxtail, Giant plant response rating (0 to 100 scale) ([3]; 31 g ai/ha) | Foxtail, Giant plant response rating (0 to 100 scale) ([3]; 125 g ai/ha) | Kochia plant response rating (0 to 100 scale) (kochia (Bassia scoparia) [4]; 31 g ai/ha) | Kochia plant response rating (0 to 100 scale) (kochia (Bassia scoparia) [4]; 125 g ai/ha) | Pigweed plant response rating (0 to 100 scale) ([5]; 31 g ai/ha) | Pigweed plant response rating (0 to 100 scale) ([5]; 125 g ai/ha) | Ragweed plant response rating (0 to 100 scale) ([6]; 31 g ai/ha) | Ragweed plant response rating (0 to 100 scale) ([6]; 125 g ai/ha) | Barnyardgrass plant response rating (0 to 100 scale) ([8]; Postemergence, 31 g ai/ha) | Blackgrass plant response rating (0 to 100 scale) ([9]; Postemergence, 31 g ai/ha) | Blackgrass plant response rating (0 to 100 scale) [9, 19] | Corn plant response rating (0 to 100 scale) (corn (Zea mays); Postemergence, 31 g ai/ha) | Corn plant response rating (0 to 100 scale) (corn (Zea mays); [19]) | Foxtail, Giant plant response rating (0 to 100 scale) ([10]; Postemergence, 31 g ai/ha) | Foxtail, Giant plant response rating (0 to 100 scale) [10, 19] | Ragweed plant response rating (0 to 100 scale) ([14]; Postemergence, 31 g ai/ha) | Wheat plant response rating (0 to 100 scale) ([15]; Postemergence, 31 g ai/ha) | Wheat plant response rating (0 to 100 scale) [15, 19] | Plant response rating, Barnyardgrass (Flood) [16] | Plant response rating, Ducksalad (Flood) [17] | Plant response rating, Rice (Flood) (rice (Oryza sativa)) | Plant response rating, Sedge, Umbrella (Flood) [18]
